Measurements as given in US20250333419A1, “BICYCLIC COMPOUNDS AS INHIBITORS OF WRN” (Incyte Corporation, priority 2023, published 2025).

Key:
WRN [1] = molecular target: T1, WRN (Homo sapiens, UniProt Q14191); assay: WRN ATPase activity assay (ADP-Glo); assay type: biochemical; conditions: IC50, 1-hr pre-incubation with enzyme; geometric means of at least 2 independent replicates
T1 construct: A His-tagged construct of WRN (AA S2-S1235) was produced and used for the ATPase assay; His; made in house; host or cells: Sf9 insect cells (baculovirus)
T1 sequence (Q14191 2-1235): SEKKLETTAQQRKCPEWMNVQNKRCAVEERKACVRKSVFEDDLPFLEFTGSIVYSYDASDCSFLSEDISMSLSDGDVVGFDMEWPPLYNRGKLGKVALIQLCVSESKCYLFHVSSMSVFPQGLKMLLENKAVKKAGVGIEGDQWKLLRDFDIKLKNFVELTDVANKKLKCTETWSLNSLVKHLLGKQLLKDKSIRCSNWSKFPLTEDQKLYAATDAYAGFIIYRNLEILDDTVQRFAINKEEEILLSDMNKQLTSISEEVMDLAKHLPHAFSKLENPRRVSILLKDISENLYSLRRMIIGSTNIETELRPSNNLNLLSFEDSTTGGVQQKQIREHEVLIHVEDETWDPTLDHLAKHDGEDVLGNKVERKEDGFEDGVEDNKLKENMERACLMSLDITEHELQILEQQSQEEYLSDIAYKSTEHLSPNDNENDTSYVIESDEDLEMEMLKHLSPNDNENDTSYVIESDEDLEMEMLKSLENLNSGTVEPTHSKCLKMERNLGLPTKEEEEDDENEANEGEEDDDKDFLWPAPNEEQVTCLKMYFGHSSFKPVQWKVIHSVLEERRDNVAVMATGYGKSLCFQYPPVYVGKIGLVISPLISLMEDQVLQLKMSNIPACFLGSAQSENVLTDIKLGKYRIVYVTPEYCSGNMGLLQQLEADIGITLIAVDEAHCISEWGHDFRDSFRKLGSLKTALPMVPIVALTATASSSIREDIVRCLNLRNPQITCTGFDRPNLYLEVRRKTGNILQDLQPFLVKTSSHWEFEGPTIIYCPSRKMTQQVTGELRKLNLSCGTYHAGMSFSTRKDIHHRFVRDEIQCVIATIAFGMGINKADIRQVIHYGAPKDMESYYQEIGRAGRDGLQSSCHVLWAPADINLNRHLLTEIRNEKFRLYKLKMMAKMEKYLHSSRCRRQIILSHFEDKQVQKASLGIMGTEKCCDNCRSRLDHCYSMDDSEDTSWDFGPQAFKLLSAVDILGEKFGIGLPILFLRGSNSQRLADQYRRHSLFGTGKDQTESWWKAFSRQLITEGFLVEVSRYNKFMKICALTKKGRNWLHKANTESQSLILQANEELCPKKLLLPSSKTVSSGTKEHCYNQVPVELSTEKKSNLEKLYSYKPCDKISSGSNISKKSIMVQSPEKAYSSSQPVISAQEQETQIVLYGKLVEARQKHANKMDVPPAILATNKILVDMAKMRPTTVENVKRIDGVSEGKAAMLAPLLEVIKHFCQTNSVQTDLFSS
Method: Compounds of the Examples were tested for WRN ATPase activity. WRN ATPase activity catalyzes ATP hydrolysis to produce ADP and phosphate. DNA encoding the target protein, 6×HIS-TEV-WRN-517-945, was produced, cloned and transfected as detailed in Example D. The amount of ADP produced was measured using ADP-Glo™ Kinase Assay kit from Promega Corporation in a Greiner white regular volume 384 wells assay plate (Greiner #781075). Data was normalized to a standard curve generated using various ADP concentrations and the corresponding luminescent signal intensities at each concentration. The assay conditions were optimized for enzyme concentration (WRN), substrate concentrations (ATP & dsDNA), and the linearity of the ATPase reaction, in the following assay buffer: 50 mM Tris-HCl, pH-7.5, 2 mM MgCl2, 50 mM NaCl, 1 mM EGTA, 0.01% P-20, 0.05% BSA, and 2 mM DTT prepared with nuclease free water.
A serial dilution (1:3 scheme) of the compounds were prepared in neat DMSO, with 100 nL of the compounds dispensed in the 384 wells assay plate. An 1-hr pre-incubation of the compounds with enzyme was included. A His-tagged construct of WRN (AA S2-S1235) was produced and used for the ATPase assay. Maximum inhibition control wells were set up with the addition of only assay buffer, and no inhibition control wells were set up with neat DMSO without test compounds. The reaction was initiated by addition of 5 μL substrate mix (200 μM ultrapure ATP, and 50 nM dsDNA prepared in assay buffer) and incubated at 25° C. for 35 min. A forked dsDNA oligomer substrate was prepared by annealing equal amounts of oligo GPat-1 ([BHQ2][…]) and oligo GPat-2 ([…][TAM]) and was used as dsDNA substrate for WRN ATPase assay. A typical ATPase reaction consists of 25 nM forked dsDNA, 100 μM ATP, and 1 nM WRN prepared in assay buffer. The WRN ATPase reaction was stopped by the addition of 5 μL of ADP-Glo Reagent from ADP-Glo™ Kinase Assay kit and incubated for 40 min to deplete the unreacted ATP. Afterwards, 5 μL of Kinase Detection Reagent from the ADP-Glo™ Kinase Assay kit was added and incubated for 1 hr for the development of luminescence signal.
Luminesce signals were measured on BMG PHERAstar FSX using luminescence protocol. Data analysis was carried out using Genedata software following % of control normalization. Fitting parameters include dose response IC50, Hill slope (n), maximum inhibition (S∞), and minimum inhibition (S0). The reported IC50 values for compounds in this invention are the geometric means of at least 2 independent replicates.

WRN [2] = molecular target: T1, WRN; assay: WRN Helicase activity assay (fluorescence DNA unwinding); assay type: biochemical; conditions: IC50, 1-hr pre-incubation with enzyme; geometric means of at least 2 independent replicates
Method: Compounds of the examples were tested for WRN helicase activity. DNA encoding the target protein, 6×HIS-TEV-WRN-517-945, was produced, cloned and transfected as detailed in Example D. To determine the inhibitory properties of the compounds, a 384 wells plate-based Helicase assay was set up to measure the extent of DNA unwinding (Helicase) activity of WRN. The WRN Helicase assay was designed to measure increase in fluorescence signal using a fluorescence based, donor-quencher paired forked dsDNA oligomer substrate (custom synthesis from Sigma-Aldrich) prepared by annealing equal amounts of oligo GPat-1 ([BHQ2][…]) and oligo GPat-2 ([…][TAM]). Continuous measurement of fluorescent signal was used to optimize the buffer conditions, concentration of enzyme (WRN), concentration of substrates (ATP & dsDNA), and the linearity of the Helicase reaction. All solutions were prepared in the following assay buffer: 50 mM Tris-HCl, pH-7.5, 2 mM MgCl2, 50 mM NaCl, 1 mM EGTA, 0.01% P-20, 0.05% BSA, and 2 mM DTT prepared with nuclease free water.
A serial dilution (1:3 scheme) of the compounds was prepared in neat DMSO and 100 nL of the compounds was dispensed in the Greiner black low volume (Greiner #784076) 384 wells assay plate. An 1-hr pre-incubation of the compounds with enzyme was included. A His-tagged construct of WRN (AA S2-S1235) was produced and used for the ATPase assay. Maximum inhibition control wells were set up with the addition of only assay buffer, and no inhibition control wells were set up with neat DMSO without test compounds. The reaction was initiated by addition of 5 μL substrate mix (200 μM ultrapure ATP, and 50 nM dsDNA prepared in assay buffer) and incubated at 25° C. for 35 min. A typical Helicase reaction consists of 25 nM forked dsDNA, 100 μM ATP, and 1 nM WRN prepared in assay buffer. The WRN Helicase reaction was quenched by the addition of 5 μL ‘STOP’ solution containing 100 mM EDTA (final EDTA concentration 33.33 mM) prepared in assay buffer. The plates were read on BMG PHERAstar FSX using 540/590 module to measure an increase of fluorescence. Data analysis was carried out using the Genedata software following % of control normalization. Fitting parameters include dose response IC50, Hill slope (n), maximum inhibition (S∞), and minimum inhibition (S0). The reported IC50 values for compounds in this invention are the geometric means of at least 2 independent replicates.

An IC50 (WRN [1]) of 0.5 to 1 µM and an IC50 (WRN [2]) of 0.5 to 1 µM were found for `CCc1c(-c2ccccc2NC(=O)/C(C#N)=C\C(C)C)c(=O)n2nc(C3=CCOCC3)nc2n1CC(=O)Nc1ccc(C(F)(F)F)cc1` (single isomer, unassigned) [Example 4, (Z)-2-Cyano-N-(2-(2-(3,6-dihydro-2H-pyran-4-yl)-5-ethyl-7-oxo-4-(2-oxo-2-((4-(trifluoromethyl)phenyl)amino)ethyl)-4,7-dihydro-[1,2,4]triazolo[1,5-a]pyrimidin-6-yl)phenyl)-4-methylpent-2-enamide] in this work.

An IC50 (WRN [1]) of under 0.1 µM and an IC50 (WRN [2]) of under 0.1 µM were found for `CCc1c(-c2ccccc2NC(=O)/C(C#N)=C/C(C)C)c(=O)n2nc(C3=CCOCC3)nc2n1CC(=O)Nc1ccc(C(F)(F)F)cc1` (single isomer, unassigned) [Example 5, (E)-2-Cyano-N-(2-(2-(3,6-dihydro-2H-pyran-4-yl)-5-ethyl-7-oxo-4-(2-oxo-2-((4-(trifluoromethyl)phenyl)amino)ethyl)-4,7-dihydro-[1,2,4]triazolo[1,5-a]pyrimidin-6-yl)phenyl)-4-methylpent-2-enamide] in this work.

An IC50 (WRN [1]) of under 0.1 µM and an IC50 (WRN [2]) of under 0.1 µM were found for `C=CS(=O)(=O)Nc1ccccc1-c1c(CC)n(CC(=O)Nc2ccc(C(F)(F)F)cc2)c2nc(C3=CCOCC3)nn2c1=O` [Example 2, 2-(2-(3,6-Dihydro-2H-pyran-4-yl)-5-ethyl-7-oxo-6-(2-(vinylsulfonamido)phenyl)-[1,2,4]triazolo[1,5-a]pyrimidin-4(7H)-yl)-N-(4-(trifluoromethyl)phenyl)acetamide] in this work.

An IC50 (WRN [1]) of 0.5 to 1 µM and an IC50 (WRN [2]) of 1 to 2 µM were found for `CCOC(=O)/C=C/C(=O)Nc1ccccc1-c1c(CC)n(CC(=O)Nc2ccc(C(F)(F)F)cc2)c2nc(C3=CCOCC3)nn2c1=O` [Example 3, Ethyl (E)-4-((2-(2-(3,6-dihydro-2H-pyran-4-yl)-5-ethyl-7-oxo-4-(2-oxo-2-((4-(trifluoromethyl)phenyl)amino)ethyl)-4,7-dihydro-[1,2,4]triazolo[1,5-a]pyrimidin-6-yl)phenyl)amino)-4-oxobut-2-enoate] in this work.

An IC50 (WRN [1]) of under 0.1 µM and an IC50 (WRN [2]) of 0.1 to 0.5 µM were found for `C=CC(=O)N(C)c1ccccc1-c1c(CC)n(CC(=O)Nc2ccc(C(F)(F)F)cc2)c2nc(C3=CCOCC3)nn2c1=O` [Example 6, N-(2-(2-(3,6-Dihydro-2H-pyran-4-yl)-5-ethyl-7-oxo-4-(2-oxo-2-((4-(trifluoromethyl)phenyl)amino)ethyl)-4,7-dihydro-[1,2,4]triazolo[1,5-a]pyrimidin-6-yl)phenyl)-N-methylacrylamide] in this work.

An IC50 (WRN [1]) of 0.1 to 0.5 µM and an IC50 (WRN [2]) of 0.5 to 1 µM were found for `C=CC(=O)Nc1c(C)cccc1-c1c(CC)n(CC(=O)Nc2ccc(C(F)(F)F)cc2)c2nc(C3=CCOCC3)nn2c1=O` [Example 7, N-(2-(2-(3,6-Dihydro-2H-pyran-4-yl)-5-ethyl-7-oxo-4-(2-oxo-2-((4-(trifluoromethyl)phenyl)amino)ethyl)-4,7-dihydro-[1,2,4]triazolo[1,5-a]pyrimidin-6-yl)-6-methylphenyl)acryl amide] in this work.

An IC50 (WRN [1]) of under 0.1 µM and an IC50 (WRN [2]) of under 0.1 µM were found for `C=CC(=O)Nc1cc(C)ccc1-c1c(CC)n(CC(=O)Nc2ccc(C(F)(F)F)cc2)c2nc(C3=CCOCC3)nn2c1=O` [Example 8, N-(2-(2-(3,6-Dihydro-2H-pyran-4-yl)-5-ethyl-7-oxo-4-(2-oxo-2-((4-(trifluoromethyl)phenyl)amino)ethyl)-4,7-dihydro-[1,2,4]triazolo[1,5-a]pyrimidin-6-yl)-5-methylphenyl)acryl amide] in this work.

An IC50 (WRN [1]) of 0.5 to 1 µM and an IC50 (WRN [2]) of 0.5 to 1 µM were found for `C=CC(=O)Nc1ccc(C)cc1-c1c(CC)n(CC(=O)Nc2ccc(C(F)(F)F)cc2)c2nc(C3=CCOCC3)nn2c1=O` [Example 9, N-(2-(2-(3,6-Dihydro-2H-pyran-4-yl)-5-ethyl-7-oxo-4-(2-oxo-2-((4-(trifluoromethyl)phenyl)amino)ethyl)-4,7-dihydro-[1,2,4]triazolo[1,5-a]pyrimidin-6-yl)-4-methylphenyl)acryl amide] in this work.

An IC50 (WRN [1]) of under 0.1 µM and an IC50 (WRN [2]) of under 0.1 µM were found for `C=CC(=O)Nc1cc(Cl)ccc1-c1c(CC)n(CC(=O)Nc2ccc(C(F)(F)F)cc2)c2nc(C3=CCOCC3)nn2c1=O` [Example 10, N-(5-Chloro-2-(2-(3,6-dihydro-2H-pyran-4-yl)-5-ethyl-7-oxo-4-(2-oxo-2-((4-(trifluoromethyl)phenyl)amino)ethyl)-4,7-dihydro-[1,2,4]triazolo[1,5-a]pyrimidin-6-yl)phenyl)acrylamide] in this work.

An IC50 (WRN [1]) of 0.5 to 1 µM and an IC50 (WRN [2]) of 0.5 to 1 µM were found for `C=CC(=O)Nc1ccc(Cl)cc1-c1c(CC)n(CC(=O)Nc2ccc(C(F)(F)F)cc2)c2nc(C3=CCOCC3)nn2c1=O` [Example 11, N-(4-Chloro-2-(2-(3,6-dihydro-2H-pyran-4-yl)-5-ethyl-7-oxo-4-(2-oxo-2-((4-(trifluoromethyl)phenyl)amino)ethyl)-4,7-dihydro-[1,2,4]triazolo[1,5-a]pyrimidin-6-yl)phenyl)acrylamide] in this work.

An IC50 (WRN [1]) of under 0.1 µM and an IC50 (WRN [2]) of under 0.1 µM were found for `C=CC(=O)Nc1cc(C(F)(F)F)ccc1-c1c(CC)n(CC(=O)Nc2ccc(C(F)(F)F)cc2)c2nc(C3=CCOCC3)nn2c1=O` [Example 12, N-(2-(2-(3,6-Dihydro-2H-pyran-4-yl)-5-ethyl-7-oxo-4-(2-oxo-2-((4-(trifluoromethyl)phenyl)amino)ethyl)-4,7-dihydro-[1,2,4]triazolo[1,5-a]pyrimidin-6-yl)-5-(trifluoromethyl)phenyl)acrylamide] in this work.

An IC50 (WRN [1]) of under 0.1 µM and an IC50 (WRN [2]) of under 0.1 µM were found for `C=CC(=O)Nc1cc(F)ccc1-c1c(CC)n(CC(=O)Nc2ccc(C(F)(F)F)cc2)c2nc(C3=CCOCC3)nn2c1=O` [Example 13, N-(2-(2-(3,6-Dihydro-2H-pyran-4-yl)-5-ethyl-7-oxo-4-(2-oxo-2-((4-(trifluoromethyl)phenyl)amino)ethyl)-4,7-dihydro-[1,2,4]triazolo[1,5-a]pyrimidin-6-yl)-5-fluorophenyl)acryl amide] in this work.

An IC50 (WRN [1]) of under 0.1 µM and an IC50 (WRN [2]) of under 0.1 µM were found for `C=CC(=O)N1CCCC=C1c1c(CC)n(CC(=O)Nc2ccc(C(F)(F)F)cc2)c2nc(C3=CCOCC3)nn2c1=O` [Example 14, 2-(6-(1-Acryloyl-1,4,5,6-tetrahydropyridin-2-yl)-2-(3,6-dihydro-2H-pyran-4-yl)-5-ethyl-7-oxo-[1,2,4]triazolo[1,5-a]pyrimidin-4(7H)-yl)-N-(4-(trifluoromethyl)phenyl)acetamide] in this work.

An IC50 (WRN [1]) of under 0.1 µM and an IC50 (WRN [2]) of under 0.1 µM were found for `C=CC(=O)N1CCc2cccc(-c3c(CC)n(CC(=O)Nc4ccc(C(F)(F)F)cc4)c4nc(C5=CCOCC5)nn4c3=O)c21` [Example 15, 2-(6-(1-Acryloylindolin-7-yl)-2-(3,6-dihydro-2H-pyran-4-yl)-5-ethyl-7-oxo-[1,2,4]triazolo[1,5-a]pyrimidin-4(7H)-yl)-N-(4-(trifluoromethyl)phenyl)acetamide] in this work.
